Results from patent publication US7572765B2, “Conformationally constrained parathyroid hormone (PTH) analogs” (The General Hospital Corporation, priority 2001, dated 2009).
Square brackets hold non-standard residues; d marks the D form. Ends that are not written are not given here. Peptide text beside a SMILES is read from it. hArg = N=C(N)NCCCC[C@H](N)C(=O)O; Nle = CCCC[C@H](N)C(=O)O; Aib = CC(C)(N)C(=O)O

Tests used:
human P1R [1] = target: T1, human P1R (Homo sapiens, UniProt Q03431); experiment: Competition binding in HKRK-B28 cells; settings: for Binding IC50: HKRK-B28 cells, tracer 125I-[M]PTH(1-21)amide, 4 h at 4° C., N.B. = no binding detected at 10 μm peptide
T1 construct: expressed in transfected cells; host or cells: HKRK-B28 (porcine kidney LLC-PK1, stably transfected)
T1 sequence (Q03431 27-593): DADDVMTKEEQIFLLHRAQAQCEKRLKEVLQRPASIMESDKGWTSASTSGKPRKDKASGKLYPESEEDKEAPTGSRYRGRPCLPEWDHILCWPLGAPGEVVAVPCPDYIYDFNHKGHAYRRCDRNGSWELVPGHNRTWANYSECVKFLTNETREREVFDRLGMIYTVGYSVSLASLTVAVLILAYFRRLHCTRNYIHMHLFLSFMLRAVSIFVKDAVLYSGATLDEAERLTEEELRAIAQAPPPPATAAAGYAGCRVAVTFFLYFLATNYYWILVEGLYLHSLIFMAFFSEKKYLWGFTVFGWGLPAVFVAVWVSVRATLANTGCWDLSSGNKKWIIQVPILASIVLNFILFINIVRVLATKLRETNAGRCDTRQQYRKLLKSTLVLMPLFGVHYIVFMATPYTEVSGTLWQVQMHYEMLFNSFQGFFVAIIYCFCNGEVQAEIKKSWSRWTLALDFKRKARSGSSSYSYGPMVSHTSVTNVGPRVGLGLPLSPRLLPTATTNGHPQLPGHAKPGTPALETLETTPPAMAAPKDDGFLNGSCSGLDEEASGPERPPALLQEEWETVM
Protocol: (§1) Cell Culture. The cell line HKRK-B28 (Takasu, H., et al., J. Bone Miner. Res. 14:11-20 (1999)) was derived from the porcine kidney cell line, LLC-PK1 by stable transfection with plasmid DNA encoding the human P1R and expresses ˜280,000 receptors per cell. These cells, as well as COS-7 cells and SaOS-2-B10 cells, were cultured at […] in T-75 flasks ([…]) in Dulbecco's modified Eagle's medium (DMEM) supplemented with fetal bovine serum (10%), penicillin G (20 units/ml), streptomycin sulfate (20 μg/ml) and amphotericin B (0.05 μg/ml) in a humidified atmosphere containing 5% CO2. Stock solutions of EGTA/trypsin and antibiotics were from GIBCO; fetal bovine serum was from Hyclone Laboratories (Logan, Utah). COS-7 cells sub-cultured in 24-well plates were transfected with plasmid DNA (200 ng per well) encoding the wild-type human P1R or truncated human P1R deleted for residues (24-181) (Shimizu, M., et al., J. Biol. Chem. 275:21836-21843 (2000)) that was purified by cesium chloride/ethidium bromide density gradient centrifugation, and FuGENE 6 transfection reagent (Roche Indianapolis Ind.) according to the manufacturer's recommended procedure. All cells, in 24-well plates, were treated with fresh media and shifted to 33° C. for 12 to 24 h prior to assay.
Competition Binding. Binding reactions were performed with HKRK-B28 cells or in COS-7 cells in 24-well plates. The cells were rinsed with 0.5 mL of binding buffer, and then treated successively with 100 μL binding buffer, 100 μL of binding buffer containing various amounts of unlabeled competitor ligand, and 100 μL of binding buffer containing ca. 100,000 cpm of ^125I-[M]PTH(1-21) or ^125I-[Aib^1,3,M]PTH(1-21)} (ca. 26 fmol; final volume=300 μL). Incubations were 4 to 6 h at 4° C., at which time near equilibrium conditions were attained. Cells were then placed on ice, the binding medium was removed, and the monolayer was rinsed three times with 0.5 mL of cold binding buffer. The cells were subsequently lysed with 0.5 mL […] and counted for radioactivity. For each tracer and in each experiment, the non-specific binding was determined as the radioactivity that bound in the presence of the same unlabeled peptide at a concentration of 1 μM, and was ˜1% of total radioactivity added for each tracer. The maximum specific binding (B0) was the total radioactivity bound in the absence of competing ligand, corrected for nonspecific binding, and for each tracer, ranged from 8% to 20% of the total radioactivity added. Nonlinear regression was used to calculate binding IC50 values (see below). Scatchard transformations of homologous competition binding data derived from studies with 26 fmol of ^125I-[Aib^1,3,M]PTH(1-21) were employed for estimations of apparent equilibrium dissociation constant (kDapps) and total number of ligand binding sites (Bmax), assuming a single class of binding sites and equal affinities of the iodinated and non iodinated ligand.
(§2) Data Calculation. Calculations were performed using Microsoft® Excel. Nonlinear regression analyses of binding and cAMP dose-response data were performed using the four-parameter equation: yp=Min+[(Max−Min)/(1+(IC50/x)^slope)]. The Excel Solver function was utilized for parameter optimization, as described previously (Carter, P. H., et al., Endocrinology 140: 4972-4981 (1999); Bowen, W. P., and Jerman, J. C., Trends in Pharmacol. Sci. 16: 413-417 (1995)). Differences between paired data sets were statistically evaluated using a one-tailed Student's t-test, assuming unequal variances for the two sets.
The P1R-binding properties of these analogs were assayed in competition studies performed in […]. In previous studies, PTH(1-14) binding could not be detected using ^125I-PTH(1-34) and related N-terminally intact and relatively unmodified radioligands (Luck, M. D., et al., Molecular Endocrinology 13:670-680 (1999)). […]

human P1R [2] = target: T1, human P1R; experiment: cAMP stimulation in HKRK-B28 cells; format: cell-based; settings: for cAMP EMax(obs.): basal 4.0 ± 0.1 pmole/well not subtracted
Protocol: as §1
cAMP Stimulation. Stimulation of cells with peptide analogs was performed in 24-well plates. Cells were rinsed with 0.5 mL of binding buffer (50 mM Tris-HCI, […], 5 mM KCl, 2 mM CaCl2, 5% heat-inactivated horse serum, 0.5% fetal bovine serum, adjusted to pH 7.5 with HCl) and treated with 200 μL of cAMP assay buffer (Delbecco's modified Eagle's medium containing 2 mM 3-isobutyl-1-methylxanthine, 1 mg/mL bovine serum albumin, 35 mM Hepes-NaOH, pH 7.4) and 100 μL of binding buffer containing varying amounts of peptide analog (final volume=300 μL). The medium was removed after incubation for 30 to 60 minutes at room temperature, and the cells were frozen on dry ice, lysed with 0.5 mL 50 mM HCl, and refrozen ([…]). The cAMP content of the diluted lysate was determined by radioimmunoassay. The EC50 response values were calculated using nonlinear regression (see below).
as §2

[3] = Circular dichroism spectroscopy (helical content); format: physicochemical
Protocol: Circular Dichroism. Circular Dichroism spectra were recorded on a Jasco model 710 spectropolarimeter; peptides were analyzed at a concentration of20 μM in 50 mM sodium phosphate buffer pH 7.4, or the same buffer containing 2,2,2-trifluoroethanol at 20% (v/v). Spectroscopic scans were preformed at 20° C. and at wavelengths between […], with data recored at each 1 nM interval. The spectral bandwidth was 1.5 nM and 8 scans were accumulated and averaged for each sample. At each wavelength, the mean residue elipticity [θ×100/l×C×n); where θ is the raw elipticity value (in dimensions of millidegree), l is the sample path length, C=is the molar peptide concentration, and n is the number of residues in the peptide (Bowen, W. P., and Jerman, J. C., Trends in Pharmacol. Sci. 16: 413-417 (1995)). The helical content of each peptide was estimated by dividing [θ] observed at 222 nM for that peptide by −28,100, which is the reported [θ]222obs for a model helical decapeptide (Bowen, W. P., and Jerman, J. C., Trends in Pharmacol. Sci. 16: 413-417 (1995)).
Circular dichroism (CD) spectroscopy was used to analyze the potential effects that the Aib substitutions had on peptide secondary structure when the peptides were free in solution. Samples were analyzed in both aqueous phosphate buffer and in phosphate buffer containing 2,2,2-trifloroethanol, an organic solvent which promotes helical structure in oligopeptides, including PTH peptide fragments (Pellegrini, M., et al., J. Biol. Chem. 273:10420-10427 (1998); Gronwald, W., et al., Biol. Chem. Hoppe Seyler 377:175-186 (1996); Barden, J. A., and Kemp, B. E., Biochemistry 32:7126-7132 (1993)). In phosphate buffer, the helical content of each peptide, estimated from the elipticity observed at 222 nM, was small (≦16%); however, [Aib^1,3,M]PTH(1-14) contained nearly twice as much helix as did [M]PTH(1-14) (16% and 8.1% respectively), as did [Aib^1,3,M]PTH(1-1l), as compared to […] (13% and 7.5% respectively, Table 4). […] The higher helical contents of these two peptides were evident not only from the negative elipticities at […] and 222 nM, but also from the positive elipticities at 192 nM (FIG. 6).

Compound	Binding IC50 (human P1R [1])	cAMP EMax(obs.) (human P1R [2]) [pmole/well]	other results
^125I-[Ala^3,12Nle^8Gln^10,Har^11,Trp^14,Tyr^15]PTH(1-15)amide (AVAEIQL[Nle]HQ[hArg]AKWY-NH2; also: 125I-labeled, place not given here) [reference compound]			binding of radiolabeled peptide to HKRK-B28 cells (in words) (human P1R [1]; direct binding of the radioligand): did not bind detectably
CSCC[C@H](NC(=O)[C@H](CC(C)C)NC(=O)[C@H](CCC(N)=O)NC(=O)C(C)(C)NC(=O)[C@H](CCC(=O)O)NC(=O)[C@H](C)NC(=O)[C@@H](NC(=O)[C@H](C)N)C(C)C)C(=O)N[C@@H](Cc1c[nH]cn1)C(=O)N[C@@H](CCC(N)=O)C(=O)N[C@@H](CCCCNC(=N)N)C(=O)N[C@@H](C)C(=O)N[C@@H](CCCCN)C(=O)N[C@@H](Cc1c[nH]c2ccccc12)C(N)=O [Aib-5] (H-AVAE[Aib]QLMHQ[hArg]AKW-NH2)	N.B.	169 ± 18	EC50 (human P1R [2]): 66 µM
CC[C@H](C)[C@H](NC(=O)[C@H](CCC(=O)O)NC(=O)[C@H](C)NC(=O)[C@@H](NC(=O)[C@H](C)N)C(C)C)C(=O)N[C@@H](CCC(N)=O)C(=O)N[C@@H](CC(C)C)C(=O)NC(C)(C)C(=O)N[C@@H](Cc1c[nH]cn1)C(=O)N[C@@H](CCC(N)=O)C(=O)N[C@@H](CCCCNC(=N)N)C(=O)N[C@@H](C)C(=O)N[C@@H](CCCCN)C(=O)N[C@@H](Cc1c[nH]c2ccccc12)C(N)=O [Aib-8] (H-AVAEIQL[Aib]HQ[hArg]AKW-NH2)	N.B.	34 ± 7	
CC[C@H](C)[C@H](NC(=O)[C@H](CCC(=O)O)NC(=O)[C@H](C)NC(=O)[C@@H](NC(=O)[C@H](C)N)C(C)C)C(=O)N[C@@H](CCC(N)=O)C(=O)N[C@@H](CC(C)C)C(=O)N[C@@H](CCSC)C(=O)NC(C)(C)C(=O)N[C@@H](CCC(N)=O)C(=O)N[C@@H](CCCCNC(=N)N)C(=O)N[C@@H](C)C(=O)N[C@@H](CCCCN)C(=O)N[C@@H](Cc1c[nH]c2ccccc12)C(N)=O [Aib-9] (H-AVAEIQLM[Aib]Q[hArg]AKW-NH2)	N.B.	51 ± 8	
CC[C@H](C)[C@H](NC(=O)[C@H](CCC(=O)O)NC(=O)C(C)(C)NC(=O)[C@@H](NC(=O)C(C)(C)N)C(C)C)C(=O)N[C@@H](CCC(N)=O)C(=O)N[C@@H](CC(C)C)C(=O)N[C@@H](CCSC)C(=O)N[C@@H](Cc1c[nH]cn1)C(N)=O [[Aib^1,3]PTH(1-9)] (H-[Aib]V[Aib]EIQLMH-NH2)	did not bind detachably	10 ± 1	Binding IC50 (human P1R [1]; listed as [Aib^1,3]PTH (1-9)): N.B.; EC50 (human P1R [2]): > 10 µM; stimulation of cAMP accumulation (in words) (human P1R [2]): Little or no stimulation of cAMP accumulation
PTH(1-11): unmodified N-terminal PTH(1-11) peptide (SVSEIQLMHNL; Parathyroid hormone; UniProt P01270 32-42, looked up, fragment)			[0]222obs × 10^−3, Phos. ([3]; 20 μM peptide, 50 mM phosphate buffer pH 7.4): −1.8; [0]222obs × 10^−3, Phos + TFE ([3]; 20 μM peptide, 50 mM phosphate buffer with trifluoroethanol (20%)): −8.4; helical residues (%), Phos + TFE ([3]; 50 mM phosphate buffer with trifluoroethanol (20%), from elipticity at 222 nM): 30%; helical residues (%), Phos. ([3]; 50 mM phosphate buffer, from elipticity at 222 nM): 6.5%
CC[C@H](C)[C@H](NC(=O)[C@H](CCC(=O)O)NC(=O)[C@H](C)NC(=O)C(C)(C)NC(=O)[C@H](C)N)C(=O)N[C@@H](CCC(N)=O)C(=O)N[C@@H](CC(C)C)C(=O)N[C@@H](CCSC)C(=O)N[C@@H](Cc1c[nH]cn1)C(=O)N[C@@H](CCC(N)=O)C(=O)N[C@@H](CCCCNC(=N)N)C(=O)N[C@@H](C)C(=O)N[C@@H](CCCCN)C(=O)N[C@@H](Cc1c[nH]c2ccccc12)C(N)=O [Aib-2] (H-A[Aib]AEIQLMHQ[hArg]AKW-NH2)		168 ± 6	
